Laboratory results as given in patent US6596713B1, “Steroid esters and amides, process for their production and their pharmaceutical use” (priority 1994, dated 2003).

Format: physicochemical
Settings: temperature in which 50 mg of substance is dissolved in 1 ml of a 1:4 benzyl benzoate/castor oil mixture; lower temperature = better solubility

Row | Molecule | Solubility
1 | CC(C)(C)CC(=O)OC/C=C\[C@]1(O)CC[C@H]2[C@@H]3CCC4=CC(=O)CC[C@@]45Cc4cc(-c6ccc(C#N)cc6)ccc4[C@@H](C[C@@]21C)[C@@H]35 [Example 7, (Z)-6′-(4-Cyanophenyl)-9,11α-dihydro-17α-[3-(3,3-dimethyl-1-oxobutoxy)-1-propenyl]-17β-hydroxy-4′H-naphtho[3′,2′,1′:10,9,11]estr-4-en-3-one] | 23 °C
2 | COC(=O)CCC(=O)OCC=CC1(O)CCC2C3CCC4=CC(=O)CCC45Cc4cc(-c6ccc(C#N)cc6)ccc4C(CC21C)C35 (stereo not drawn) [Example 9, (Z)-6′-(4-Cyanophenyl)-9,11α-dihydro-17α-[3-(1,4-dioxo-4-methoxybutoxy)-1-propenyl]-17β-hydroxy-4′H-naphtho[3′,2′,1′:10,9,11]estr-4-en-3-one] | 50 °C
3 | CC(C)[C@H](NC(=O)OC(C)(C)C)C(=O)OCCC[C@@]1(O)CC[C@H]2[C@@H]3CCC4=CC(=O)CCC4=C3[C@@H](c3ccc(N(C)C)cc3)C[C@]21C [Example 29, (S)-11β-[4-(Dimethylamino)phenyl]-17α-[3-[2-[[(1,1-dimethylethoxy)-carbonyl]amino]-3-methyl-1-oxobutoxy]-1-propyl]-17α-hydroxy-13α-estra-4,9-dien-3-one] | 23 °C
4 | C[C@H](N)C(=O)OC/C=C\[C@]1(O)CC[C@H]2[C@@H]3CCC4=CC(=O)CC[C@@H]4[C@H]3[C@@H](c3ccc(N(C)C)cc3)C[C@@]21C [Example 30, [S-(Z)]-17α-[3-(2-Amino-1-oxopropoxy)-1-propenyl]-11β-[4-(dimethylamino)phenyl]-17βhydroxyestr-4-en-3-one] | 50 °C
5 | CC(NC(=O)OC(C)(C)C)C(=O)OCC=CC1(O)CCC2C3CCC4=CC(=O)CCC4C3C(c3ccc(N(C)C)cc3)CC21C (stereo not drawn) [Example 31, [S-(Z)]-11β-[4-(Dimethylamino)phenyl]-17α-[3-[2-[[(1,1-dimethylethoxy)carbonyl]amino]-1-oxopropoxy]-1-propenyl]-17β-hydroxyestr-4-en-3-one] | 23 °C
6 | CC(C)C(NC(=O)OC(C)(C)C)C(=O)OCC=CC1(O)CCC2C3CCC4=CC(=O)CCC4C3C(c3ccc(N(C)C)cc3)CC21C (stereo not drawn) [Example 32, [S-(Z)]-11β-[4-(Dimethylamino)phenyl]-17α-[3-[2-[(1,1-dimethylethoxy)carbonyl]amino]-3-methyl-1-oxobutoxyl]-1-propenyl]-17β-hydroxyestr-4-en-3-one] | 23 °C
7 | CC(NC(=O)OC(C)(C)C)C(=O)OCC=CC1(O)CCC2C3CCC4=CC(=O)CCC4C3C(c3ccc(-c4ccc(C#N)cc4)cc3)CC21C (stereo not drawn) [Example 33, [S-(z)]-4′-[17α-[3-[2-[[(1,1-Dimethylethoxy)carbonyl]amino]-1-oxopropoxy]-1-propenyl]-17β-hydroxy-3-oxoestr-4-en-11β-yl][1,1′-biphenyl]-4-carbonitrile] | 50 °C
8 | CC(C)C(NC(=O)OC(C)(C)C)C(=O)OCC=CC1(O)CCC2C3CCC4=CC(=O)CCC4C3C(c3ccc(-c4ccc(C#N)cc4)cc3)CC21C (stereo not drawn) [Example 34, [S-(Z)]-4′-[17α-[3-[2-[[(1,1-Dimethylethoxy)carbonyl]amino]-3-methyl-1-oxobutoxy]-1-propenyl]-17β-hydroxy-3-oxoestr-4-en-11β-yl][1,1′-biphenyl]-4-carbonitrile] | 50 °C
9 | CN(C)c1ccc(C2CC3(C)C(CCC3(O)C=CCOC(=O)CNC(=O)OC(C)(C)C)C3CCC4=CC(=O)CCC4C23)cc1 (stereo not drawn) [Example 37, [S-(Z)]-11β-[4-(Dimethylamino)phenyl]-17α-[3-[[[(1,1-dimethylethoxy)carbonyl]amino]acetyloxy]-1-propenyl]-17β-hydroxyestr-4-en-3-one] | 23 °C
10 | CC(C)(C)OC(=O)NCC(=O)OCC=CC1(O)CCC2C3CCC4=CC(=O)CCC4C3C(c3ccc(-c4ccc(C#N)cc4)cc3)CC21C (stereo not drawn) [Example 38, [S-(Z)]-4′-[17α-[3-[[[(1,1-Dimethylethoxy)carbonyl]-amino]acetyloxy]-1-propenyl]-17β-hydroxy-3-oxoestr-4-en-11β-yl][1,1′-biphenyl]-4-carbonitrile] | 23 °C
11 | CC(C)C(N)C(=O)OCC=CC1(O)CCC2C3CCC4=CC(=O)CCC4C3C(c3ccc(-c4ccc(C#N)cc4)cc3)CC21C (stereo not drawn) [Example 39, [S-(Z)]-4′-[17α-[3-[2-Amino-3-methyl-1-oxobutoxy]-1-propenyl]-17β-hydroxy-3-oxoestr-4-en-11β-yl][1,1′-biphenyl]-4-carbonitrile] | 50 °C
12 | (S)-6′-(4-Fluorophanyl)-9,11α-dihydro-17α-[3-[2-[[(1,1-dimethylethoxy) carbonyl]amino]-1-oxopropoxy]-1-propyl]-17β-hydroxy-4′H-naphtho[3′,2′,1′:10,9,11]estr-4-on-3-one [Example 43] | 23 °C
13 | (S)-6′-(4-Fluorophanyl)-9,11α-dihydro-17α-[3-[2-[[(1,1-dimethylethoxy)carbonyl]amino]-1-oxopropoxy]-1-propinyl]-17β-hydroxy-4′H-naphtho[3′,2′,1′;10,9,11]estr-4-en-3-one [Example 42] | 23 °C
14 | (S-(Z)]-6′-(4-Cyanophenyl)-9,11α-dihydro-17α-[3-[2-[[(1,1-dimethylethoxy)carbonyl]amino]-1-oxopropoxy]-1-propenyl]-17β-hydroxy-4′H-naphtho[3′,2′,1′:10,9,11]estr-4-en-3-one [Example 15] | 23 °C
15 | (Z)-6′-(4-Cyanophenyl)-9,11α-dihydro-17α-[3-(1,4-dioxo-4-ethoxybutoxy)-1-propenyl]-17β-hydroxy-4′H-naphtho[3′,2′,1′:10,9,11]estr-4-en-3-one [Example 10] | 50 °C

The next lines start with the values.

Row | Solubility | Molecule
16 | 23 °C | 6′-(4-Fluorophenyl)-17α-(3-hydroxypropyl)-9,11α-dihydro-17β-hydroxy-4′H-naphtho[3′,2′,1′:10,9,11]estr-4-en-3-one [Ref. 6, reference compound]
17 | 23 °C | 6′-(4-Fluorophonyl)-17α-(3-hydroxyprop-1-inyl)-9,11α-dihydro-17β-hydroxy-4′H-naphtho[3′,2′,1′:10,9,11]estr-4-on-3-one [Ref. 5, reference compound]
18 | 100 °C | CC(C)C(=O)OC/C=C\[C@]1(O)CC[C@H]2[C@@H]3CCC4=CC(=O)CC[C@@]45Cc4cc(-c6ccc(C#N)cc6)ccc4[C@@H](C[C@@]21C)[C@@H]35 [Example 6, (Z)-6′-(4-Cyanophenyl)-9,11α-dihydro-17β-hydroxy-17α-[3-(1-oxo-2-methylpropoxy)-1-propenyl]-4′H-naphtho[3′,2′,1′:10,9,11]estr-4-en-3-one]
19 | 100 °C | CCOCCC(=O)OCC=CC1(O)CCC2C3CCC4=CC(=O)CCC45Cc4cc(-c6ccc(C#N)cc6)ccc4C(CC21C)C35 (stereo not drawn) [Example 11, (Z)-6′-(4-Cyanophenyl)-9,11α-dihydro-17α-[3-(3-ethoxy-1-oxopropoxy)-1-propenyl]-17βhydroxy-4′H-naphtho[3′,2′,1′:10,9,11]estr-4-en-3-one]
20 | 100 °C | CC12CC3c4ccc(-c5ccc(C#N)cc5)cc4CC45CCC(=O)C=C4CCC(C35)C1CCC2(O)C=CCOC(=O)CN (stereo not drawn) [Example 12, (Z)-17α-[3-[(Aminoacetyl)oxy]-1-propenyl]-6′-(4-cyanophenyl)-9,11α-dihydro-17β-hydroxy-4′H-naphtho[3′,2′,1′:10,9,11]estr-4-en-3-one]
21 | 23 °C | CC(N)C(=O)OCC=CC1(O)CCC2C3CCC4=CC(=O)CCC45Cc4cc(-c6ccc(C#N)cc6)ccc4C(CC21C)C35 (stereo not drawn) [Example 14, [S-(Z)]-17α-[3-(2-Amino-1-oxopropoxy)-1-propenyl]-6′-(4-cyanophenyl)-9,11α-dihydro-17β-hydroxy-4′H-naphtho [3′,2′,1′:10,9,11]estr-4-en-3-one]
22 | 50 °C | CCCCCCC(=O)OCC=CC1(O)CCC2C3CCC4=CC(=O)CCC45Cc4cc(-c6cccnc6)ccc4C(CC21C)C35 (stereo not drawn) [Example 20, (Z)-9,11α-Dihydro-17βhydroxy-17α-[3-[(1-oxoheptyl)oxy]-1-propenyl]-6′-(3-pyridinyl)-4′H-naphtho[3′,2′,1′:10,9,11]estr-4-en-3-one]
23 | 23 °C | CC(NC(=O)OC(C)(C)C)C(=O)OCCCC1(O)CCC2C3CCC4=CC(=O)CCC4=C3C(c3ccc(N(C)C)cc3)CC21C [Example 27, (S)-11β-[4-(Dimethylamino)phenyl]-17β-[3-[2-[[(1,1-dimethylethoxy)-carbonyl]amino]-1-oxopropoxy]propyl]-17α-hydroxy-13α-estra-4,9-dien-3-one]
24 | 23 °C | CN(C)c1ccc(C2CC3(C)C(CCC3(O)CCCOC(=O)CNC(=O)OC(C)(C)C)C3CCC4=CC(=O)CCC4=C23)cc1 [Example 36, (S)-11β-[4-(Dimethylamino)phenyl]-17β-[3-[[[(1,1-dimethylethoxy)carbonyl]amino]acetyloxy]propyl]-17α-hydroxy-13α-estra-4,9-dien-3-one]
25 | >>100 °C | CC12CC3c4ccc(-c5ccc(C#N)cc5)cc4CC45CCC(=O)C=C4CCC(C35)C1CCC2(O)C=CCO (stereo not drawn) [Ref. 1, (Z)-6′-(4-cyanophenyl)-9,11α-dihydro-17β-hydroxy-17α-(3-hydroxy-1-propenyl)-4′H-naphtho[3′,2′,1′:10,9,11]estr-4-en-3-one, reference compound]
26 | >>100 °C | C[C@]12C[C@@H]3c4ccc(-c5cccnc5)cc4C[C@]45CCC(=O)C=C4CC[C@H]([C@H]35)[C@@H]1CC[C@@]2(O)/C=C\CO [Ref. 2, (Z)-9,11α-dihydro-17β-hydroxy-17α-(3-hydroxy-1-propenyl)-6′-(3-pyridinyl)-4′H-naphtho[3′,2′,1′:10,9,11]estr-4-en-3-one, reference compound]
27 | 50 °C | (Z)-6′-(4-Cyanophenyl)-9,11α-dihydro-17α-[3-[[[[(1,1-dimethylethoxy)carbonyl]-amino]acetyl]oxy]-1-propenyl]-17βhydroxy-4′H-naphtho[3′,2′,1′:10,9,11]estr-4-en-3-one [Example 13]
28 | 23 °C | (Z)-6′-(4-Cyanophenyl)-9,11α-dihydro-17α-hydroxy-17α-[3-[(1-oxododecyl)oxy]-1-propenyl]-4′H-naphtho[3′,2′,1′:10,9,11]estr-4-en-3-one [Example 5]
29 | 23 °C | (Z)-6′-(4-Cyanophenyl)-9,11α-dihydro-17β-hydroxy-17α-[3-[(1-oxoheptyl)oxy]-1-propenyl]-4′H-naphtho[3′,2′,1′:10,9,11]estr-4-en-3-one [Example 3]
